# Assay: Transdermal delivery of melatonin: plasma level of melatonin after applying composition to skin of a subject
# Settings: for concentration at 0 h / concentration at 1 h / concentration at 2 h / concentration at 0 hr / concentration at 1 hr / concentration at 2 hr / concentration at 4 hr / concentration at 8 hr / concentration at 4 h / concentration at 8 h: human, plasma, topical, 3 mg
structure (smiles),measurement,setting,value
COc1ccc2[nH]cc(CCNC(C)=O)c2c1 [Melatonin],Plasma level of melatonin,"2-(Dimethylamino)ethyl 2-(4-isobutylphenyl)propionate hydrochloride 222.60 mM, 0.60 mL applied to skin, 1 hr after transdermal administration",1.5 ng/mL
same,Plasma level of melatonin,"2-(Dimethylamino)ethyl 2-(4-isobutylphenyl)propionate hydrochloride 222.60 mM, 0.60 mL applied to skin, 2 hr after transdermal administration",1.7 ng/mL
same,Plasma level of melatonin,"2-(Dimethylamino)ethyl 2-(4-isobutylphenyl)propionate hydrochloride 222.60 mM, 0.60 mL applied to skin, 4 hr after transdermal administration",1.6 ng/mL
same,Plasma level of melatonin,"2-(Dimethylamino)ethyl 2-(4-isobutylphenyl)propionate hydrochloride 222.60 mM, 0.60 mL applied to skin, 8 hr after transdermal administration",1.5 ng/mL
same,Plasma level of melatonin,"4-(Diethylamino)butyl 2-(4-isobutylphenyl)propionate hydrochloride 189.21 mM, 0.60 mL applied to skin, 0 hr after transdermal administration",0 ng/mL
same,Plasma level of melatonin,"4-(Diethylamino)butyl 2-(4-isobutylphenyl)propionate hydrochloride 189.21 mM, 0.60 mL applied to skin, 1 hr after transdermal administration",1.4 ng/mL
same,Plasma level of melatonin,"4-(Diethylamino)butyl 2-(4-isobutylphenyl)propionate hydrochloride 189.21 mM, 0.60 mL applied to skin, 2 hr after transdermal administration",1.5 ng/mL
same,Plasma level of melatonin,"4-(Diethylamino)butyl 2-(4-isobutylphenyl)propionate hydrochloride 189.21 mM, 0.60 mL applied to skin, 4 hr after transdermal administration",1.5 ng/mL
same,Plasma level of melatonin,"4-(Diethylamino)butyl 2-(4-isobutylphenyl)propionate hydrochloride 189.21 mM, 0.60 mL applied to skin, 8 hr after transdermal administration",1.3 ng/mL
same,Plasma level of melatonin,"5-(Diethylamino)pentyl 2-(4-isobutylphenyl)propionate hydrochloride 182.28 mM, 0.60 mL applied to skin, 1 hr after transdermal administration",1.6 ng/mL
same,Plasma level of melatonin,"5-(Diethylamino)pentyl 2-(4-isobutylphenyl)propionate hydrochloride 182.28 mM, 0.60 mL applied to skin, 2 hr after transdermal administration",1.9 ng/mL
same,Plasma level of melatonin,"5-(Diethylamino)pentyl 2-(4-isobutylphenyl)propionate hydrochloride 182.28 mM, 0.60 mL applied to skin, 4 hr after transdermal administration",1.9 ng/mL
same,Plasma level of melatonin,"5-(Diethylamino)pentyl 2-(4-isobutylphenyl)propionate hydrochloride 182.28 mM, 0.60 mL applied to skin, 8 hr after transdermal administration",1.7 ng/mL
same,Plasma level of melatonin,"Helper esters: None (0 mM), 2.0 mL applied to skin, 0 hr after transdermal administration",0.0 ng/mL
same,concentration at 0 h,,0 ng/mL
same,concentration at 0 h,"Plasma level of melatonin, Helper esters: None (0 mM), 2.0 mL applied to skin, 0 hr after transdermal administration",0 ng/mL
same,concentration at 1 h,"Plasma level of melatonin, Helper esters: None (0 mM), 2.0 mL applied to skin, 1 hr after transdermal administration",0.1 ng/mL
same,concentration at 2 h,"Plasma level of melatonin, Helper esters: None (0 mM), 2.0 mL applied to skin, 2 hr after transdermal administration",0.1 ng/mL
same,concentration at 0 hr,"Plasma level of melatonin, Isoleucine hexyl ester 278.04 mM, 0.60 mL applied to skin, 0 hr after transdermal administration",0 ng/mL
same,concentration at 1 hr,"Plasma level of melatonin, Isoleucine hexyl ester 278.04 mM, 0.60 mL applied to skin, 1 hr after transdermal administration",1.2 ng/mL
same,concentration at 2 hr,"Plasma level of melatonin, Isoleucine hexyl ester 278.04 mM, 0.60 mL applied to skin, 2 hr after transdermal administration",1.3 ng/mL
same,concentration at 4 hr,"Plasma level of melatonin, Isoleucine hexyl ester 278.04 mM, 0.60 mL applied to skin, 4 hr after transdermal administration",1.4 ng/mL
same,concentration at 8 hr,"Plasma level of melatonin, Isoleucine hexyl ester 278.04 mM, 0.60 mL applied to skin, 8 hr after transdermal administration",1.3 ng/mL
same,concentration at 0 hr,"Plasma level of melatonin, Isoleucine isopropyl ester 333.76 mM, 0.60 mL applied to skin, 0 hr after transdermal administration",0 ng/mL
same,concentration at 1 hr,"Plasma level of melatonin, Isoleucine isopropyl ester 333.76 mM, 0.60 mL applied to skin, 1 hr after transdermal administration",1.7 ng/mL
same,concentration at 2 hr,"Plasma level of melatonin, Isoleucine isopropyl ester 333.76 mM, 0.60 mL applied to skin, 2 hr after transdermal administration",1.8 ng/mL
same,concentration at 4 hr,"Plasma level of melatonin, Isoleucine isopropyl ester 333.76 mM, 0.60 mL applied to skin, 4 hr after transdermal administration",1.9 ng/mL
same,concentration at 8 hr,"Plasma level of melatonin, Isoleucine isopropyl ester 333.76 mM, 0.60 mL applied to skin, 8 hr after transdermal administration",1.8 ng/mL
same,concentration at 0 h,"Plasma level of melatonin, Leucine hexyl ester hydrochloride 278.04 mM, 0.60 mL applied to skin, 0 hr after transdermal administration",0 ng/mL
same,concentration at 1 h,"Plasma level of melatonin, Leucine hexyl ester hydrochloride 278.04 mM, 0.60 mL applied to skin, 1 hr after transdermal administration",1.4 ng/mL
same,concentration at 2 h,"Plasma level of melatonin, Leucine hexyl ester hydrochloride 278.04 mM, 0.60 mL applied to skin, 2 hr after transdermal administration",1.5 ng/mL
same,concentration at 4 hr,"Plasma level of melatonin, Leucine hexyl ester hydrochloride 278.04 mM, 0.60 mL applied to skin, 4 hr after transdermal administration",1.5 ng/mL
same,concentration at 8 hr,"Plasma level of melatonin, Leucine hexyl ester hydrochloride 278.04 mM, 0.60 mL applied to skin, 8 hr after transdermal administration",1.3 ng/mL
same,concentration at 0 h,"Plasma level of melatonin, Leucine isopropyl ester hydrochloride 333.76 mM, 0.60 mL applied to skin, 0 hr after transdermal administration",0 ng/mL
same,concentration at 1 h,"Plasma level of melatonin, Leucine isopropyl ester hydrochloride 333.76 mM, 0.60 mL applied to skin, 1 hr after transdermal administration",1.7 ng/mL
same,concentration at 2 h,"Plasma level of melatonin, Leucine isopropyl ester hydrochloride 333.76 mM, 0.60 mL applied to skin, 2 hr after transdermal administration",1.8 ng/mL
same,concentration at 4 h,"Plasma level of melatonin, Leucine isopropyl ester hydrochloride 333.76 mM, 0.60 mL applied to skin, 4 hr after transdermal administration",1.9 ng/mL
same,concentration at 8 h,"Plasma level of melatonin, Leucine isopropyl ester hydrochloride 333.76 mM, 0.60 mL applied to skin, 8 hr after transdermal administration",1.8 ng/mL
same,concentration at 0 hr,"Plasma level of melatonin, Phenylalanine isopropyl ester hydrochloride 287.21 mM, 0.60 mL applied to skin, 0 hr after transdermal administration",0 ng/mL
same,concentration at 1 hr,"Plasma level of melatonin, Phenylalanine isopropyl ester hydrochloride 287.21 mM, 0.60 mL applied to skin, 1 hr after transdermal administration",1.6 ng/mL
same,concentration at 2 hr,"Plasma level of melatonin, Phenylalanine isopropyl ester hydrochloride 287.21 mM, 0.60 mL applied to skin, 2 hr after transdermal administration",1.7 ng/mL
same,concentration at 4 hr,"Plasma level of melatonin, Phenylalanine isopropyl ester hydrochloride 287.21 mM, 0.60 mL applied to skin, 4 hr after transdermal administration",1.6 ng/mL
same,concentration at 8 hr,"Plasma level of melatonin, Phenylalanine isopropyl ester hydrochloride 287.21 mM, 0.60 mL applied to skin, 8 hr after transdermal administration",1.7 ng/mL
same,concentration at 0 h,"Plasma level of melatonin, Phenylalanine octyl ester hydrochloride 223.02 mM, 0.60 mL applied to skin, 0 hr after transdermal administration",0 ng/mL
same,concentration at 1 h,"Plasma level of melatonin, Phenylalanine octyl ester hydrochloride 223.02 mM, 0.60 mL applied to skin, 1 hr after transdermal administration",1.3 ng/mL
same,concentration at 2 h,"Plasma level of melatonin, Phenylalanine octyl ester hydrochloride 223.02 mM, 0.60 mL applied to skin, 2 hr after transdermal administration",1.4 ng/mL
same,concentration at 4 h,"Plasma level of melatonin, Phenylalanine octyl ester hydrochloride 223.02 mM, 0.60 mL applied to skin, 4 hr after transdermal administration",1.3 ng/mL
same,concentration at 8 h,"Plasma level of melatonin, Phenylalanine octyl ester hydrochloride 223.02 mM, 0.60 mL applied to skin, 8 hr after transdermal administration",1.2 ng/mL
same,concentration at 0 hr,"Plasma level of melatonin, Table 20 control, A− N/A, helper esters 0 mM, 2.0 mL applied, 0 hr after transdermal administration",0 ng/mL
same,concentration at 1 hr,"Plasma level of melatonin, Table 20 control, A− N/A, helper esters 0 mM, 2.0 mL applied, 1 hr after transdermal administration",0.1 ng/mL
same,concentration at 2 h,"Plasma level of melatonin, Table 20 control, A− N/A, helper esters 0 mM, 2.0 mL applied, 2 hr after transdermal administration",0.1 ng/mL
